In patent US6391305B1, “Conjugates useful in the treatment of prostate cancer” (priority 1999, dated 2002):
Where two headings read alike, the source gives them in different places. Marks after values point to notes of the source that are not given here. Non-standard residues stand in square brackets, D forms with d. Residues, ends and D or L forms follow the SMILES beside them. *: point of attachment. Doxorubicin(3'-N) = COc1cccc2c1C(=O)c1c(O)c3c(c(O)c1C2=O)C[C@@](O)(C(=O)CO)C[C@@H]3O[C@H]1C[C@H](N*)[C@H](O)[C@H](C)O1; X2 = COCCOCCOCCOCCOCCOCCOCCOCCOCCOCCOCCOCCOCCOCCOCCOCCOCC(=O)*; Decanoyl(3,6,9-trioxa) = COCCOCCOCC(=O)*; Glyceroyl(2R) = O=C([C@H](O)CO)*; X4 = COCCOCCOCCOCCOCCOCCOCC(=O)*; hArg = N=C(N)NCCCC[C@H](N)C(=O)O; 3Pal = N[C@@H](Cc1cccnc1)C(=O)O; Chg = N[C@H](C(=O)O)C1CCCCC1; Nle = CCCC[C@H](N)C(=O)O; Glycolyl = O=C(CO)*

Columns and labels:
[1] = target: T1, enzymatically active free PSA (Homo sapiens, UniProt P07288); test: Recognition (cleavage) of oligopeptide-doxorubicin conjugates by free PSA, HPLC; type: biochemical; details: DOX conjugate; for Time to 50% Substrate Cleavage by York PSA: PSA digestion buffer pH7.4, 140 mM NaCl, molar ratio to PSA 100 to 1
T1 construct: required for 50% cleavage of the noted oligopeptides with enzymatically active free PSA
Method: If no salt is indicated for the conjugate, the free conjugate was tested.

[2] = system: LNCap prostate tumor cells; test: In vitro cytotoxicity, Alamar Blue assay, LNCaP; type: cell-based; details: 72 HRS, read-out: LNCaP Cell Kill in 72 HRS, {48 HRS} EC 50
Method: (§1) The cytotoxicities of the cleaveable oligopeptide-doxorubicin conjugates, prepared as described in Examples 3-6, against a line of cells which is known to be killed by unmodified doxorubicin was assessed with an Alamar Blue assay. Specifically, cell cultures of LNCap prostate tumor cells or DuPRO cells in 96 well plates was diluted with medium containing various concentrations of a given conjugate (final plate well volume of 200 μl ). The cells were incubated for 3 days at 37° C., 20 μl of Alamar Blue is added to the assay well. The cells were further incubated and the assay plates were read on a EL-310 ELISA reader at the dual wavelengths of 570 and 600 nm at 4 and 7 hours after addition of Alamar Blue. Relative percentage viability at the various concentration of conjugate tested was then calculated versus control (no conjugate) cultures. If no salt is indicated, the free conjugate was tested.

DuPRO cells = test: In vitro cytotoxicity, Alamar Blue assay, DuPRO; type: cell-based; details: value in parentheses beside the LNCaP value, read-out: DuPRO cell kill EC 50
Method: as §1

[3] = target: T1, enzymatically active free PSA; type: biochemical
Method: All other oligopeptides were tested as neutral compounds.

[4] = oligopeptide, PSA digestion buffer pH8.0, molar ratio to PSA 100 to 1

T1 sequence (P07288 25-261): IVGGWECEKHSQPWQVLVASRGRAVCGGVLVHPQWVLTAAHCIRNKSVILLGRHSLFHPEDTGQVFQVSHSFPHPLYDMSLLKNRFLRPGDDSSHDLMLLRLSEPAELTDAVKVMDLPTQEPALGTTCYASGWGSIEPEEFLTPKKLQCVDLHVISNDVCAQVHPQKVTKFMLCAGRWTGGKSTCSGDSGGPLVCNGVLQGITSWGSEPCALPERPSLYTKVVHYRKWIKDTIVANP

Compound: PEG(2)-SerSerSerChgGln-Ser(dLeu)-DOX (3′) ({Decanoyl(3,6,9-trioxa)}-SSS[Chg]QS[dL]-{Doxorubicin(3'-N)}; also: DOX attached at 3′) [PEG(2)-SSSChgQ-S(dL)-DOX (3′)]
- Substrate cleavage by York PSA at 3 HOUR ([1]; 3 hours): 46%

Compound: COCCOCCOCC(=O)N[C@@H](C)C(=O)N[C@@H](CO)C(=O)N[C@H](C(=O)N[C@@H](CCC(N)=O)C(=O)N[C@@H](CO)C(=O)N[C@@H](CC(C)C)C(=O)N[C@H]1C[C@H](O[C@H]2C[C@](O)(C(=O)CO)Cc3c(O)c4c(c(O)c32)C(=O)c2c(OC)cccc2C4=O)O[C@@H](C)[C@H]1O)C1CCCCC1 [PEG(2)-ASChgQ-SL-DOX (3′), PEG(2)-AlaSerChgGln-SerLeu-DOX (3′)] ({Decanoyl(3,6,9-trioxa)}-AS[Chg]QSL-{Doxorubicin(3'-N)})
- Time to 50% Substrate Cleavage by York PSA [1]: 45 min
- EC50 [2]: 5.6 µM

Compound: COc1cccc2c1C(=O)c1c(O)c3c(c(O)c1C2=O)C[C@@](O)(C(=O)CO)C[C@@H]3O[C@H]1C[C@H](NC(=O)[C@H](CC(C)C)NC(=O)[C@H](CO)NC(=O)[C@H](CCC(N)=O)NC(=O)[C@H](Cc2ccc(O)cc2)NC(=O)[C@H](CO)NC(=O)[C@H](CO)NC(=O)[C@H](CCCCNC(=N)N)NC(=O)CO)[C@H](O)[C@H](C)O1 [2-hydroxyacetyl-HomoRSSYQ-SL-DOX (3′), 2-hydroxyacetyl-hArgSerSerTyrGln-SerLeu-DOX (3′)] (Glycolyl-[hArg]SSYQSL-{Doxorubicin(3'-N)})
- Time to 50% Substrate Cleavage by York PSA [1]: 16 min
- EC50 [2]: 13.6 µM

Compound: COCCOCCOCCOCCOCCOCCOCC(=O)N[C@@H](C)C(=O)N[C@@H](CO)C(=O)N[C@H](C(=O)N[C@@H](CCC(N)=O)C(=O)N[C@@H](CO)C(=O)N[C@@H](CC(C)C)C(=O)N[C@H]1C[C@H](O[C@H]2C[C@](O)(C(=O)CO)Cc3c(O)c4c(c(O)c32)C(=O)c2c(OC)cccc2C4=O)O[C@@H](C)[C@H]1O)C1CCCCC1 [PEG(6)-ASChgQ-SL-DOX (3′), PEG(6)-AlaSerChgGln-SerLeu-DOX (3′)] (X4-AS[Chg]QSL-{Doxorubicin(3'-N)})
- Time to 50% Substrate Cleavage by York PSA [1]: 160 min
- EC50 [2]: 12 µM

Compound: COc1cccc2c1C(=O)c1c(O)c3c(c(O)c1C2=O)C[C@@](O)(C(=O)CO)C[C@@H]3O[C@H]1C[C@H](NC(=O)[C@H](CC(C)C)NC(=O)[C@H](CO)NC(=O)[C@H](CCC(N)=O)NC(=O)[C@@H](NC(=O)[C@H](CCCCNC(=N)N)NC(=O)[C@H](CO)NC(=O)CO)C2CCCCC2)[C@H](O)[C@H](C)O1 [2-hydroxyacetyl-SHomoRChgQ-SL-DOX (3′), 2-hydroxyacetyl-SerhArgChgGln-SerLeu-DOX (3′)] (Glycolyl-S[hArg][Chg]QSL-{Doxorubicin(3'-N)})
- EC50 (DuPRO cells): > 100 µM
- EC50 [2]: 5.1 µM

Compound: COc1cccc2c1C(=O)c1c(O)c3c(c(O)c1C2=O)C[C@@](O)(C(=O)CO)C[C@@H]3O[C@H]1C[C@H](NC(=O)[C@H](CC(C)C)NC(=O)[C@H](CO)NC(=O)[C@H](CO)NC(=O)[C@H](CO)NC(=O)[C@H](CCC(N)=O)NC(=O)[C@H](Cc2ccc(O)cc2)NC(=O)[C@H](CO)NC(=O)CO)[C@H](O)[C@H](C)O1 [2-hydroxyacetyl-SYQ-SSSL-DOX (3′), 2-hydroxyacetyl-SerTyrGln-SerSerSerLeu-DOX (3′)] (Glycolyl-SYQSSSL-{Doxorubicin(3'-N)})
- EC50 [2]: 18.8 µM

Compound: COCCOCCOCCOCCOCCOCCOCCOCCOCCOCCOCCOCCOCCOCCOCCOCCOCC(=O)N[C@@H](CO)C(=O)N[C@@H](CCCCNC(=N)N)C(=O)N[C@@H](Cc1ccc(O)cc1)C(=O)N[C@@H](CCC(N)=O)C(=O)N[C@@H](CO)C(=O)N[C@@H](CC(C)C)C(=O)N[C@H]1C[C@H](O[C@H]2C[C@](O)(C(=O)CO)Cc3c(O)c4c(c(O)c32)C(=O)c2c(OC)cccc2C4=O)O[C@@H](C)[C@H]1O [PEG(16)-SHomoRYQ-SL-DOX (3′), PEG(16)-SerhArgTyrGln-SerLeu-DOX (3′)] (X2-S[hArg]YQSL-{Doxorubicin(3'-N)})
- Time to 50% Substrate Cleavage by York PSA [1]: 65 min
- EC50 [2]: 45 µM

Compound: COc1cccc2c1C(=O)c1c(O)c3c(c(O)c1C2=O)C[C@@](O)(C(=O)CO)C[C@@H]3O[C@H]1C[C@H](NC(=O)[C@H](CC(C)C)NC(=O)[C@H](CO)NC(=O)[C@H](CCC(N)=O)NC(=O)[C@@H](NC(=O)[C@H](CO)NC(=O)[C@H](CO)NC(=O)[C@H](CCCCNC(=N)N)NC(=O)CO)C2CCCCC2)[C@H](O)[C@H](C)O1 [2-hydroxyacetyl-HomoRSSChgQ-SL-DOX (3′), 2-hydroxyacetyl-hArgSerSerChgGln-SerLeu-DOX (3′)] (Glycolyl-[hArg]SS[Chg]QSL-{Doxorubicin(3'-N)})
- EC50 (DuPRO cells): > 100 µM
- EC50 [2]: 5.5 µM

Compound: COCCOCCOCC(=O)N[C@@H](CCCCNC(=N)N)C(=O)N[C@@H](Cc1ccc(O)cc1)C(=O)N[C@@H](CCC(N)=O)C(=O)N[C@@H](CO)C(=O)N[C@@H](CO)C(=O)N[C@@H](CO)C(=O)N[C@@H](CC(C)C)C(=O)N[C@H]1C[C@H](O[C@H]2C[C@](O)(C(=O)CO)Cc3c(O)c4c(c(O)c32)C(=O)c2c(OC)cccc2C4=O)O[C@@H](C)[C@H]1O [PEG(2)-HomoRYQ-SSSL-DOX (3′), PEG(2)-hArgTyrGln-SerSerSerLeu-DOX (3′)] ({Decanoyl(3,6,9-trioxa)}-[hArg]YQSSSL-{Doxorubicin(3'-N)})
- Substrate cleavage by York PSA at 4 HOUR ([1]; 4 hours): 40%
- EC50 [2]: 14 µM

Compound: COc1cccc2c1C(=O)c1c(O)c3c(c(O)c1C2=O)C[C@@](O)(C(=O)CO)C[C@@H]3O[C@H]1C[C@H](NC(=O)[C@H](CC(C)C)NC(=O)[C@H](CO)NC(=O)[C@H](CCC(N)=O)NC(=O)[C@@H](NC(=O)[C@H](CO)NC(=O)[C@H](CO)NC(=O)[C@H](Cc2cccnc2)NC(=O)[C@H](O)CO)C2CCCCC2)[C@H](O)[C@H](C)O1 [(d)(2,3-dihydroxypropionyl)-3PAL-SerSerChgGln-SerLeu-DOX (3′)] ({Glyceroyl(2R)}-[3Pal]SS[Chg]QSL-{Doxorubicin(3'-N)})
- Time to 50% Substrate Cleavage by York PSA [1]: 12 min
- EC50 [2]: 5.5 µM

Compound: COCCOCCOCC(=O)N[C@@H](CO)C(=O)N[C@@H](CCCCNC(=N)N)C(=O)N[C@@H](Cc1ccc(O)cc1)C(=O)N[C@@H](CCC(N)=O)C(=O)N[C@@H](CO)C(=O)N[C@@H](CC(C)C)C(=O)N[C@H]1C[C@H](O[C@H]2C[C@](O)(C(=O)CO)Cc3c(O)c4c(c(O)c32)C(=O)c2c(OC)cccc2C4=O)O[C@@H](C)[C@H]1O [PEG(2)-SHomoRYQ-SL-DOX (3′), PEG(2)-SerhArgTyrGln-SerLeu-DOX (3′)] ({Decanoyl(3,6,9-trioxa)}-S[hArg]YQSL-{Doxorubicin(3'-N)})
- Time to 50% Substrate Cleavage by York PSA [1]: 60 min
- EC50 ([2]; listed as PEG(2)-ShRYQ-SL-DOX(3′)): 34 µM

Compound: COCCOCCOCC(=O)N[C@@H](CCCCN)C(=O)N[C@@H](Cc1ccc(O)cc1)C(=O)N[C@@H](CCC(N)=O)C(=O)N[C@@H](CO)C(=O)N[C@@H](CO)C(=O)N[C@@H](CO)C(=O)N[C@@H](CC(C)C)C(=O)N[C@H]1C[C@H](O[C@H]2C[C@](O)(C(=O)CO)Cc3c(O)c4c(c(O)c32)C(=O)c2c(OC)cccc2C4=O)O[C@@H](C)[C@H]1O [PEG(2)-KYQ-SSSL-DOX (3′), PEG(2)-LysTyrGln-SerSerSerLeu-DOX (3′)] ({Decanoyl(3,6,9-trioxa)}-KYQSSSL-{Doxorubicin(3'-N)})
- EC50 [2]: 12.8 µM

Compound: COc1cccc2c1C(=O)c1c(O)c3c(c(O)c1C2=O)C[C@@](O)(C(=O)CO)C[C@@H]3O[C@H]1C[C@H](NC(=O)[C@H](CC(C)C)NC(=O)[C@H](CO)NC(=O)[C@H](CCC(N)=O)NC(=O)[C@@H](NC(=O)[C@H](CO)NC(=O)[C@H](C)NC(=O)[C@H](CCCCNC(=N)N)NC(=O)CO)C2CCCCC2)[C@H](O)[C@H](C)O1 [2-hydroxyacetyl-HomoRASChgQ-SL-DOX (3′), 2-hydroxyacetyl-hArgAlaSerChgGln-SerLeu-DOX (3′)] (Glycolyl-[hArg]AS[Chg]QSL-{Doxorubicin(3'-N)})
- EC50 [2]: 7.9 µM

Compound: PEG(2)-3PAL-SSChgQ-SL-acid: blocked oligopeptide with PSA cleavage site, Example 1 ({Decanoyl(3,6,9-trioxa)}-[3Pal]SS[Chg]QSL-OH; SMILES COCCOCCOCC(=O)N[C@@H](Cc1cccnc1)C(=O)N[C@@H](CO)C(=O)N[C@@H](CO)C(=O)N[C@H](C(=O)N[C@@H](CCC(N)=O)C(=O)N[C@@H](CO)C(=O)N[C@@H](CC(C)C)C(=O)O)C1CCCCC1)
- Time to 50% Substrate Cleavage by York PSA [3, 4]: 80 min

Compound: CCCC[C@H](NC(=O)[C@H](CO)NC(=O)[C@H](CCC(N)=O)NC(=O)[C@H](Cc1ccc(O)cc1)NC(=O)[C@H](CCCCNC(=N)N)NC(=O)[C@H](CO)NC(C)=O)C(=O)O [Ac-ShRYQ-SNle-acid] (Ac-S[hArg]YQS[Nle]-OH)
- Time to 50% Substrate Cleavage by York PSA ([3]; psa digestion buffer, pH 8): 25 min

Compound: 2,3-dihydroxypropionyl-hRSSChgQ-SL-acid: blocked oligopeptide with PSA cleavage site, Example 1
- Time to 50% Substrate Cleavage by York PSA [3, 4]: 50 min

Compound: 2(S)-2,3-dihydroxy-propionyl ShRChgQSL-acid: blocked oligopeptide with PSA cleavage site, Example 1 ({2(S)‑2,3‑dihydroxypropionyl}-S[hArg][Chg]QSL-OH)
- Time to 50% Substrate Cleavage by York PSA (Min), values marked * ([3]; oligopeptide, asterisk not explained in Table 2): 35* Min
